Article PMC4152272 (PLoS ONE, 2014)

How the values were obtained:
N188 (Novozyme 188 BGL) [1] = tested on: T1, N188 (Novozyme 188 BGL); assay: glucose release, glucose assay reagent, […] nm; type: biochemical; conditions: 50 mM acetate pH 5.0
T1 construct: gene bglA; commercial preparation Novozyme 188 (Novozymes), partially purified; N-glycosylated

N188 (Novozyme 188 BGL) [2] = tested on: T1, N188 (Novozyme 188 BGL); assay: p-nitrophenol release, […] nm, nonlinear least squares; type: biochemical; conditions: 50 mM acetate pH 5.0, 50°C, 1 min

| SMILES | Km (N188 (Novozyme 188 BGL) [1]) | Km (N188 (Novozyme 188 BGL) [2]) |
| --- | --- | --- |
| OC[C@H]1O[C@@H](O[C@H]2[C@H](O)[C@@H](O)C(O)O[C@@H]2CO)[C@H](O)[C@@H](O)[C@@H]1O (some centres unmarked) [cellobiose] | 2530 ± 506 µM | – |
| O=[N+]([O-])c1ccc(O[C@@H]2O[C@H](CO)[C@@H](O)[C@H](O)[C@H]2O)cc1 [pNPG, p-nitrophenyl β-D-glucopyranoside] | – | 1250 ± 164 µM |
